This is an account of results in US20120178695A1, “METHODS OF TREATING NEUROPATHIC PAIN” (priority 2009, published 2012).

Data set [1] concerns rat model of peripheral neuropathy. The experiment in a line: rat model of peripheral neuropathy, mechanical allodynia (Example 5). In kind it is in vivo. Conditions: for group mean withdrawal threshold, nerve-injured paw: approximately 60 min post-dose. As for the experimental part: FIG. 2 depicts the result of groups of eight male rats subjected to chronic constriction injury to the right hind limb. Following development of peripheral neuropathy, rats were administered GLYX-13, i.v. at 5, 10 or 20 mg/kg on days 12 and 13 post-operative (PO). Rats were tested for mechanical allodynia at 15 and 60 minutes post-dose on day 13 PO. The data represent mechanical allodynia readings at 15 minutes post-dose.
The ability of GLYX-13 to attenuate neuropathic pain was assessed in a rat model of peripheral neuropathy. In this study, four groups of eight male rats were subjected to surgically-induced peripheral neuropathy. Peripheral neuropathy was induced in the right hind limb of male rats by loose ligation of the right sciatic nerve according to the method of Bennett and Xie (Bennett and Xie, 1988). After 8-10 days, a peripheral neuropathy had developed in the right hind limbs as determined by sensitivity to both mechanical allodynia and thermal hyperalgesia. This pilot study consisted of four groups of eight male rats. Days 12-13 post surgery, vehicle (0.9% saline) or GLYX-13 at 5, 10, and 20 mg/kg were administered, and rats were tested for sensitivity to both the thermal stimulus and mechanical allodynia. […] The results for GLYX-13 15 minutes post dose in this rodent neuropathy model are shown FIG. 2.

The test system of data set [2] is radiant heat tail flick response. The experiment in a line: radiant heat tail flick study in rats. In kind it is in vivo, rat. Conditions: male rats; 1, 5, and 10 mg/kg i.v., five minutes after administration. As for the experimental part: The ability of GLYX-13 to block the radiant heat tail flick response was determined in male rats. Groups of 10 male rats were administered either saline or GLYX-13 at 1, 5, or 10 mg/kg via i.v. injection, and five minutes following administration, the tail of each rat was exposed to a radiant heat stimulus. The time to elicit a characteristic tail flick was determined for each rat and the mean response time was determined for each group.

For data set [3], the system named is rodent peripheral neuropathy model. The experiment in a line: second peripheral neuropathy study, mechanical allodynia (Example 6). In kind it is in vivo, rat. The following applies: 5 mg/kg i.v. As for the experimental part:
FIG. 3 depicts the results of groups of 12 male rats subjected to chronic constriction injury to the right hind limb. Following development of peripheral neuropathy, rats were 5 administered GLYX-13, i.v. at 5, 10 or 20 mg/kg on days 12 and 13 post-operative (PO). Rats were tested for mechanical allodynia at 15 and 60 minutes post-dose on day 13 PO. The data represent mechanical allodynia readings at 60 minutes post-dose.
A second peripheral neuropathy study was performed with GLYX-13 in male Sprague- Dawley rats. A peripheral mononeuropathy was induced in the right hind limb and rats were tested for development of mechanical allodynia. Rats that had positively developed neuropathy were administered vehicle (0.9% saline) or GLYX-13 i.v. at doses of 5, 10, or 20 mg/kg on days 12 and 13 PO. Testing for mechanical allodynia was performed at 15 and 60 minutes post-dose. […] In this rodent peripheral neuropathy model, i.v. administration of5 mg/kg GLYX-13 to male rats caused a significant reduction in the sensitivity of the nerve injured hind paw to mechanical allodynia at both 15 and 60 minutes post dose. There was no evidence of any systemic or contralateral effects in this study.

Data set [4] has as its system acetic-acid induced writhing model in mice. The experiment in a line: acetic-acid induced writhing model in mice. In kind it is in vivo, mouse. The following applies: male mice; 1, 5, and 10 mg/kg i.v., 5 min before i.p. 0.5% acetic acid. As for the experimental part:
GLYX-13 was tested for antinociceptive activity in an acetic-acid induced writhing model in mice. Groups of 10 male mice were dosed i.v. with either saline or GLYX-13 at 1, 5, or 10 mg/kg. Five minutes later, each mouse was injected i.p. with a solution of 0.5% acetic acid in 0.9% saline and observed for writhing behavior for five minutes. The total number of writhes for each mouse was recorded and the mean number of writhes was compared between the control and GLYX-13 treated groups.
For orientation: In writhing tests, fewer writhes than in controls are read as antinociception.

Data set [5] deals with rat formalin model of tonic pain. The experiment in a line: rat formalin model of tonic pain. Type of data set: in vivo. The following applies: for antinociceptive efficacy (percentage analgesia, late phase response): subcutaneous before formalin, second phase 10-40 min after formalin. Here is the method: FIG. 1 depicts the antinociceptive actions of GLYX-13 and gabapentin in the rat formalin model of tonic pain. Percentage analgesia is the percentage reduction (on the basis of the area under the curve for vehicle+formalin) in flinches in the late phase response (10-40 min) after intraplantar formalin injection ([…] of 5% formalin) compared with control values arbitrarily set at 100%. Drugs were administered subcutaneously, 15 min before formalin. N=8-10 per group. Mean±SEM.
Antinociceptive actions of GLYX-13 were conducted in a rat formalin assay. Male Sprague-Dawley rats (125-170 g) were manually restrained for a subcutaneous injection of 1.5% formalin ([…] with a 26 ga needle) into the lateral footpad on the plantar surface of the left hind paw. After formalin injections, rats were placed in individual clear plastic cylinders of 30 cm diameter. Drug effects on the second phase of the pain response were monitored with observations conducted over the period between 10 and 40 min after formalin injection. Each group was composed of 10 animals. Vehicle, GLYX-13, or gabapentin was administered subcutaneously at the nape of the neck 10 min before the formalin injection. The time spent licking or elevating the injected limb was quantitated over this […] observation period.

Data set [6] has as its system intraplantar formalin pain, late phase. The experiment in a line: formalin test 8 days after a single dose (Example 7). Conditions: 1 dose 3 mg/kg i.v. 8 days before intraplantar formalin (1.5%). In kind it is in vivo, rat. Here is the method: FIG. 4 depicts mean±SEM percent analgesia in the late phase (30-50 min) in 3 month old Sprague-Dawley rats pretreated with GLYX-13 (3 mg/kg i.v.), ketamine (10 mg/kg i.v.) or saline vehicle injection (1 mg/ml i.v. tail vein) in freely behaving rats 8 days before left rear paw intraplantar injections (50 μl) of formalin (1.5%). Analgesia is % reduction in licking time, number of flinches, or total pain score (favoring+2×foot up+3×licking time). […] N=10-11 per group. * P<0.05 Fisher PLSD post hoc drug vs. all other groups.
Freely behaving 3 month old Sprague Dawley rats were pretreated with GLYX -13 (3 mg/kg i.v.), ketamine (10 mg/kg i.v.) or saline vehicle injection (1 mg/ml i.v. tail vein) 8 days before left rear paw intraplantar injections (50 μl) of formalin (1.5%).

For data set [7], the system named is Randall-Selitto paw pressure model. The experiment in a line: Randall-Selitto paw pressure model in rats. In kind it is in vivo, rat. Here is the method:
The purpose of this study was to assess the potential effect of GLYX-13 upon the pain threshold in rats using the Randall-Selitto paw pressure model. Groups of 10 male rats (20 for saline vehicle control) were injected with a 20% suspension of yeast in the right hind paw and two hours later, each rat was intravenously administered either saline or GLYX-13 at 1, 5, or 10 mg/kg. The response to mechanical pain stimulus was determined for both the inflamed and non-inflamed paw using an analgesia meter. The amount of force required to elicit paw withdrawal was measured for each rat.

Data set [8] in a line: blood-brain barrier crossing.
Data set [9] has as its system chronic constriction nerve injury model of neuropathic pain. The experiment in a line: chronic constriction nerve injury model of neuropathic pain (Example 1). In kind it is in vivo, rat. Conditions: 5 mg/kg intravenously; 15 and 60 minutes after dosing. As for the experimental part:
Next, GLYX-13 was evaluated in the chronic constriction nerve injury model of neuropathic pain; 5 mg/kg GLYX-13. Male Sprague-Dawley rats (200-225 g) were anesthetized with sodium pentobarbitone (6 mg/kg, intraperitoneally) and supplemented as necessary with isoflurane (1-3% in oxygen). Under asceptic conditions, the right sciatic nerve was exposed by blunt dissection at the mid thigh level and 1 cm freed of adhering connective tissue. Four chromic catgut (4.0) ligatures were tied to lightly constrict the nerve at 1 mm intervals. The overlying muscle and skin were sutured and, upon recovery from anesthesia, the rats returned to cages of soft padded bedding and to cages with sawdust bedding after 24 h. At days 5, 7, 9, and 11 post recovery, mechanical […] was assessed with Von Frey filaments (calibration numbers, 3.61-6.10) applied to the plantar surface of the hind paw from below. The filaments were evaluated in ascending order with the threshold for both the ipsilateral and contralateral paws being evaluated. The withdrawal threshold was defined as the lowest force of two or more consecutive Von Frey filaments to elicit a withdrawal reflex. […]
The antinociceptive actions of vehicle or GLYX-13 (5 mg/kg) were evaluated at 15 and 60 minutes after dosing. […]

Data set [10] in a line: ataxia on rotor-rod apparatus. In kind it is in vivo. The following applies: 30 min after 5, 50, or 500 mg/kg intravenous administration.

Each structure is given as a SMILES string. Peptide text beside a SMILES is read from it.

`C[C@@H](O)[C@H](N)C(=O)N1CCC[C@H]1C(=O)N1CCC[C@H]1C(=O)N[C@H](C(N)=O)[C@@H](C)O` [GLYX-13, L-threonyl-L-prolyl-L-prolyl-L-threonine amide] (H-TPPT-NH2): the “withdrawal threshold, nerve-injured paw” value in data set [1] (10 mg/kg i.v., 15 minutes post dose) was 5.98 ± 2.25 g; in data set [1] (10 mg/kg i.v., 60 minutes post dose), 7.26 ± 2.19 g; in data set [1] (doses of 5 and 20 mg/kg), “small but distinct increases in withdrawal threshold”. The “responses of the uninjured (contralateral) hind paw” value in [1] (5, 10, and 20 mg/kg, any of the time points tested) is “No marked changes”. Besides, the entries for the “group mean withdrawal threshold, nerve-injured paw” value in [1] (high dose (20 mg/kg i.v.)) and in data set [1] (low dose group (5 mg/kg i.v.)) were 2.08 ± 1.21 g and 5.04 ± 3.09 g, respectively. In addition, the “withdrawal threshold in the nerve injured hind paw to mechanical allodynia” value in data set [1] (male rats, 5, 10, and 20 mg/kg) is “marked increase in the withdrawal threshold”. For the same compound, the “response time to a radiant heat stimulus (tail flick)” value in data set [2] is listed as “did not result in a change in the response time”. Besides, the contralateral effects result in [3] is on record as “no evidence of any contralateral effects”. Further, in data set [3] (free-base, approximately 15 and 60 min post dose), the “sensitivity of the nerve-injured paw to mechanical stimuli (Von Frey filaments)” value is listed as “statistically significant reduction in the sensitivity”. For the same compound, in data set [4], the “acetic acid induced writhing behavior” value is “did not block acetic acid induced writhing behavior”. The ataxia result in data set [5] (rat, in vivo, sc) was “not ataxic at any of the doses examined”; in [9] it was “no evidence of ataxia”. In addition, the “antinociceptive efficacy (percentage analgesia, late phase response)” value in data set [5] is listed as “dose-dependent efficacy”. In addition, the “analgesia in the late phase (30-50 min) of the formalin test” value in [6] is recorded as “increased analgesia 8 days after administration”. Further, the “pain threshold (force to elicit paw withdrawal)” value is given as “no significant effect on the pain threshold” in data set [7] (male rats, yeast-inflamed paw, 1, 5, or 10 mg/kg i.v.); “Slight, but not statistically significant, increases in the pain threshold” in data set [7] (rats dosed with 5 and 10 mg/kg i.v.). Moreover, in [8], the “crossing of the blood-brain barrier” value was “readily crosses the blood-brain barrier in an active form”. Moreover, in [9], the “antinociceptive action (mechanical allodynia)” value is “antinociceptive at both time points”. For the same compound, the “ataxia, rotor-rod apparatus” value in data set [10] was “not found to induce ataxia”.
In the case of `NCC1(CC(=O)O)CCCCC1` [gabapentin, reference compound], in data set [5], the “antinociceptive efficacy (percentage analgesia, late phase response)” value is “dose-dependent efficacy”. In data set [5] (subcutaneous, doses of the formalin study (data not shown)), the ataxia entry is given as “ataxic at the highest dose”.
